Experiments:
[1] = buffer
Centaurea cyanus = experiment: Herbicidal activity against Centaurea cyanus assessed as weed control at 450 g/ha; format: functional
Chenopodium album [2] = experiment: Herbicidal activity against Chenopodium album assessed as weed control at 450 g/ha; format: functional
[3] = Decomposition temperature of the compound; format: physicochemical
[4] = Decomposition temperature of 5 % of the compound; format: physicochemical
[5] = Melting point of the compound; format: physicochemical
[6] = Glass transition temperature of the compound; format: physicochemical
Capsella bursa-pastoris [7] = experiment: Herbicidal activity against Capsella bursa-pastoris assessed as weed control at 0.02 M measured after 30 days of treatment relative to control; format: functional
Capsella bursa-pastoris [8] = experiment: Herbicidal activity against Capsella bursa-pastoris assessed as weed control at 0.01 M measured after 30 days of treatment relative to control; format: functional
Capsella bursa-pastoris [9] = experiment: Herbicidal activity against Capsella bursa-pastoris assessed as weed control at 0.02 M measured after 6 days of treatment relative to control; format: functional
Capsella bursa-pastoris [10] = experiment: Herbicidal activity against Capsella bursa-pastoris assessed as weed control at 0.01 M measured after 6 days of treatment relative to control; format: functional
Thlaspi arvense [11] = experiment: Herbicidal activity against Thlaspi arvense assessed as weed control at 0.02 M measured after 30 days of treatment relative to control; format: functional
Thlaspi arvense [12] = experiment: Herbicidal activity against Thlaspi arvense assessed as weed control at 0.01 M measured after 30 days of treatment relative to control; format: functional
Thlaspi arvense [13] = experiment: Herbicidal activity against Thlaspi arvense assessed as weed control at 0.02 M measured after 6 days of treatment relative to control; format: functional
Thlaspi arvense [14] = experiment: Herbicidal activity against Thlaspi arvense assessed as weed control at 0.01 M measured after 6 days of treatment relative to control; format: functional
Chenopodium album [15] = experiment: Herbicidal activity against Chenopodium album assessed as weed control at 0.02 M measured after 30 days of treatment relative to control; format: functional
Chenopodium album [16] = experiment: Herbicidal activity against Chenopodium album assessed as weed control at 0.01 M measured after 30 days of treatment relative to control; format: functional
Chenopodium album [17] = experiment: Herbicidal activity against Chenopodium album assessed as weed control at 0.02 M measured after 6 days of treatment relative to control; format: functional
Chenopodium album [18] = experiment: Herbicidal activity against Chenopodium album assessed as weed control at 0.01 M measured after 6 days of treatment relative to control; format: functional
[19] = Cold crystallization temperature of the compound; format: physicochemical

**Q.** With CCCC[N+]1(C)CCOCC1.O=C([O-])COc1ccc(Cl)cc1Cl as the molecule, how does the solubility [1] read?
**A.** soluble

**Q.** For C[n+]1cccc(C(N)=O)c1.O=C([O-])COc1ccc(Cl)cc1Cl, which solubility [1] is on record?
**A.** soluble

**Q.** For CNC.O=C(O)COc1ccc(Cl)cc1Cl [2,4-D-Dimethylammonium], which Activity (Centaurea cyanus) is on record?
**A.** 20%

**Q.** What about the Activity (Chenopodium album [2]) of the same molecule?
**A.** 60%

**Q.** For CCCCCCCCSCn1cc[n+](C)c1.O=C([O-])COc1ccc(Cl)cc1Cl, which solubility [1] is on record?
**A.** soluble

**Q.** With CCCCCCCCOCn1cc[n+](C)c1.O=C([O-])COc1ccc(Cl)cc1Cl as the molecule, how does the solubility [1] read?
**A.** soluble

**Q.** What does the source list for C[N+](C)(CCO)COC1CCCCCCCCCCC1.O=C([O-])COc1ccc(Cl)cc1Cl?
**A.** T [3]: 280 °C; T [4]: 242 °C; Tm [5]: 108 °C

**Q.** With CCCCCCCCCCCCCCCC[N+](C)(C)C.O=C([O-])COc1ccc(Cl)cc1Cl [HEXADECYLTRIMETHYLAMMONIUM(2,4-DICHLOROPHENOXY)ACETATE] as the molecule, how does the T [3] read?
**A.** 253 °C

**Q.** And the T [4]?
**A.** 218 °C

**Q.** What about the Tm [5] of the same molecule?
**A.** -20 °C

**Q.** With C=CC[N+](C)(C)CC=C.O=C([O-])COc1ccc(Cl)cc1Cl [DIALLYLDIMETHYLAMMONIUM(2,4-DICHLOROPHENOXY)ACETATE] as the molecule, how does the T [3] read?
**A.** 196 °C

**Q.** What about the T [4] of the same molecule?
**A.** 187 °C

**Q.** And the T [6]?
**A.** -42 °C

**Q.** And the solubility [1]?
**A.** soluble

**Q.** What does the source list for CCCCCCCCCCSC[N+](C)(C)CCO.O=C([O-])COc1ccc(Cl)cc1Cl?
**A.** T [3]: 219 °C; T [4]: 205 °C; T [6]: -35 °C; solubility [1]: soluble

**Q.** What does the source list for CCCCCCCCCCCCCCCC[N+](C)(C)CCO.O=C([O-])COc1ccc(Cl)cc1Cl [DODECYLDI(POLYOXYETHYLENE)METHYLAMMONIUM(2,4-DICHLOROPHENOXY)ACETATE]?
**A.** T [3]: 285 °C; T [4]: 219 °C; T [6]: -54 °C

**Q.** For CCCC[N+]1(C)CCCC1.O=C([O-])COc1ccc(Cl)cc1Cl, which solubility [1] is on record?
**A.** soluble

**Q.** With CCCOC[N+]1(C)CCCCC1.O=C([O-])COc1ccc(Cl)cc1Cl as the molecule, how does the solubility [1] read?
**A.** soluble

**Q.** Which results are given for CCCCCCCCCC[N+](C)(C)CCCCCCCCCC.O=C([O-])COc1ccc(Cl)cc1Cl [DIDECYLDIMETHYLAMMONIUM(2,4-DICHLOROPHENOXY)ACETATE]?
**A.** Activity (Capsella bursa-pastoris [7]): 100%; Activity (Capsella bursa-pastoris [8]): 100%; Activity (Capsella bursa-pastoris [9]): 99%; Activity (Capsella bursa-pastoris [10]): 81%; Activity (Thlaspi arvense [11]): 100%; Activity (Thlaspi arvense [12]): 100%; Activity (Thlaspi arvense [13]): 96%; Activity (Thlaspi arvense [14]): 82%; Activity (Chenopodium album [15]): 100%; Activity (Chenopodium album [16]): 100%; Activity (Chenopodium album [17]): 98%; Activity (Chenopodium album [18]): 89%; T [19]: -39 °C; T [3]: 260 °C; T [4]: 208 °C; Tm [5]: -3 °C; T [6]: -50 °C

**Q.** Which results are given for CCCCCCCCCCCC[N+](C)(C)CCOc1ccccc1.O=C([O-])COc1ccc(Cl)cc1Cl [DODECYLDIMETHYLPHENOXYETHYLAMMONIUM(2,4-DICHLOROPHENOXY)ACETATE]?
**A.** T [3]: 273 °C; T [4]: 214 °C; T [6]: -42 °C

**Q.** For CCCCCCCCCCCCCCCC[n+]1ccccc1.O=C([O-])COc1ccc(Cl)cc1Cl, which solubility [1] is on record?
**A.** soluble

**Q.** For CCCCCOC[N+]1(C)CCCCC1.O=C([O-])COc1ccc(Cl)cc1Cl, which solubility [1] is on record?
**A.** soluble

**Q.** For C[N+]1(C)CCCCC1.O=C([O-])COc1ccc(Cl)cc1Cl, which solubility [1] is on record?
**A.** soluble

**Q.** With CCCCCC(CC)OC(=O)COc1ccc(Cl)cc1Cl [2,4-D-Ethylhexyl] as the molecule, how does the Activity (Centaurea cyanus) read?
**A.** 80%

**Q.** And the Activity (Chenopodium album [2])?
**A.** 100%

**Q.** With O=C([O-])COc1ccc(Cl)cc1Cl.[Na+] as the molecule, how does the Activity (Capsella bursa-pastoris [7]) read?
**A.** 100%

**Q.** What about the Activity (Capsella bursa-pastoris [8]) of the same molecule?
**A.** 100%

**Q.** And the Activity (Capsella bursa-pastoris [9])?
**A.** 55%

**Q.** What about the Activity (Capsella bursa-pastoris [10]) of the same molecule?
**A.** 28%

**Q.** And the Activity (Thlaspi arvense [11])?
**A.** 100%

**Q.** And the Activity (Thlaspi arvense [12])?
**A.** 100%

**Q.** What about the Activity (Thlaspi arvense [13]) of the same molecule?
**A.** 48%

**Q.** And the Activity (Thlaspi arvense [14])?
**A.** 31%

**Q.** And the Activity (Chenopodium album [15])?
**A.** 75%

**Q.** What about the Activity (Chenopodium album [16]) of the same molecule?
**A.** 25%

**Q.** What about the Activity (Chenopodium album [17]) of the same molecule?
**A.** 60%

**Q.** What about the Activity (Chenopodium album [18]) of the same molecule?
**A.** 55%

— ChEMBL document CHEMBL3045874, “2,4-D based herbicidal ionic liquids” (Tetrahedron, 2012)
